What was measured:
Experiment in all cases: relative viability (nuclei count vs DMSO), 5 days (fraction); higher = more cells survive
IU1-47 + Foretinib = compound: CC1=CC(=C(N1C2=CC=C(C=C2)Cl)C)C(=O)CN3CCCCC3 [IU1-47] + COc1cc2c(Oc3ccc(NC(=O)C4(C(=O)Nc5ccc(F)cc5)CC4)cc3F)ccnc2cc1OCCCN1CCOCC1 [Foretinib] (partner 0.25 µM)
How it was run: (§1)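 Values are medians from duplicate plates. Each reflects relative viability, defined as the nuclei count of treated wells over that of vehicle wells. Lung cancer cell lines in 1536-well plates were pin-tool dosed one day after seeding with one drug alone or with a fixed anchor-drug dose plus five library-drug doses (not always all listed) in √10 steps, then fixed, stained and imaged at 4× after 5 days.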

FG-4592 + OSI-027 = compound: Cc1nc(C(=O)NCC(=O)O)c(O)c2ccc(Oc3ccccc3)cc12 [FG-4592] + COc1cccc2cc(-c3nc([C@H]4CC[C@H](C(=O)O)CC4)n4ncnc(N)c34)[nH]c12 [OSI-027] (partner 0.5 µM)
How it was run: as §1

FG-4592 + Lapatinib = compound: Cc1nc(C(=O)NCC(=O)O)c(O)c2ccc(Oc3ccccc3)cc12 [FG-4592] + CS(=O)(=O)CCNCc1ccc(-c2ccc3ncnc(Nc4ccc(OCc5cccc(F)c5)c(Cl)c4)c3c2)o1 [Lapatinib] (partner 2 µM)
How it was run: as §1

FG-4592 + Pemetrexed = compound: Cc1nc(C(=O)NCC(=O)O)c(O)c2ccc(Oc3ccccc3)cc12 [FG-4592] + Nc1nc2[nH]cc(CCc3ccc(C(=O)N[C@@H](CCC(=O)O)C(=O)O)cc3)c2c(=O)[nH]1 [Pemetrexed] (partner 0.2 µM)
How it was run: as §1

Cell Line | relative viability (IU1-47 + Foretinib; first compound 0.08 µM) | relative viability (IU1-47 + Foretinib; first compound 0.253 µM) | relative viability (IU1-47 + Foretinib; first compound 0.8 µM) | relative viability (IU1-47 + Foretinib; first compound 2.53 µM) | relative viability (IU1-47 + Foretinib; first compound 8 µM) | relative viability (FG-4592 + OSI-027; first compound 0.08 µM) | relative viability (FG-4592 + OSI-027; first compound 0.253 µM) | relative viability (FG-4592 + OSI-027; first compound 2.53 µM) | relative viability (FG-4592 + OSI-027; first compound 8 µM) | relative viability (FG-4592 + Lapatinib; first compound 0.08 µM) | relative viability (FG-4592 + Lapatinib; first compound 0.253 µM) | relative viability (FG-4592 + Lapatinib; first compound 0.8 µM) | relative viability (FG-4592 + Lapatinib; first compound 2.53 µM) | relative viability (FG-4592 + Lapatinib; first compound 8 µM) | relative viability (FG-4592 + Pemetrexed; first compound 0.08 µM) | relative viability (FG-4592 + Pemetrexed; first compound 0.253 µM) | relative viability (FG-4592 + Pemetrexed; first compound 0.8 µM) | relative viability (FG-4592 + Pemetrexed; first compound 2.53 µM) | relative viability (FG-4592 + Pemetrexed; first compound 8 µM) | relative viability (FG-4592 + OSI-027; first compound 0.8 µM)
LC-2-ad | 1 | 1.07 | 0.908 | 0.794 | 0.878 | 0.838 | 0.753 | 0.591 | 0.661 | 0.913 | 0.915 | 0.94 | 0.904 | 1.05 | 0.29 | 0.29 | 0.269 | 0.26 | 0.288 | –
LCLC-97TM1 | 0.957 | 1.02 | 0.892 | 0.725 | 0.856 | 0.665 | 0.397 | 0.488 | 0.395 | 1.13 | 1.12 | 0.716 | – | 0.791 | 0.189 | 0.152 | – | 0.145 | 0.171 | 0.716
LK-2 | 1.8 | 1.82 | 1.78 | 0.89 | 0.943 | 0.185 | 0.19 | 0.185 | 0.174 | 0.695 | 0.912 | 0.68 | 0.886 | 0.767 | 0.26 | 0.277 | – | 0.239 | 0.268 | 0.223
LOU-NH91 | 0.988 | 1 | 0.903 | 0.891 | 0.966 | 0.722 | 0.399 | 0.666 | 0.687 | 0.72 | 0.759 | 0.618 | 0.734 | 0.631 | 0.465 | 0.336 | 0.468 | 0.405 | 0.407 | 0.753
LU99A | 0.768 | 0.759 | 0.859 | 0.932 | 0.702 | 0.332 | 0.276 | 0.267 | 0.27 | 0.964 | 0.93 | 0.801 | 0.96 | 0.83 | 0.184 | 0.199 | – | 0.182 | 0.199 | 0.296
LXF-289 | 1.01 | 1.06 | 1.1 | 0.967 | 0.902 | 0.659 | 0.717 | 0.709 | 0.821 | 0.93 | 0.881 | 0.937 | 0.946 | 0.945 | 0.853 | 0.906 | 1.02 | 0.883 | 0.948 | 0.755
NCI-H23 | 0.91 | 1.14 | 1.04 | 1.17 | 1.03 | 0.612 | 0.517 | 0.325 | 0.439 | 1.09 | 1.07 | 0.953 | 0.772 | 1.01 | 0.567 | 0.562 | 0.644 | 0.534 | 0.793 | 0.488
NCI-H322M | 1.07 | 1.03 | 0.882 | 0.965 | 1.03 | 0.507 | 0.543 | 0.488 | 0.469 | 0.451 | 0.621 | 0.631 | 0.646 | 0.633 | – | 0.614 | 0.613 | 0.546 | 0.63 | 0.557
NCI-H358 | 0.828 | 0.628 | 0.863 | 0.652 | 0.658 | 0.695 | 0.664 | 0.702 | 0.572 | 0.501 | 0.413 | 0.497 | 0.437 | 0.453 | 0.169 | 0.165 | 0.164 | 0.176 | 0.179 | 0.83
NCI-H460 | 1.09 | 1.04 | 1.26 | 0.86 | 1.15 | 0.757 | 0.641 | 0.554 | 0.614 | 0.923 | 0.768 | 1.05 | 0.94 | 1.1 | 0.0673 | 0.0639 | 0.058 | 0.0799 | 0.0618 | 0.721
NCI-H520 | 0.785 | 0.866 | 0.698 | 1.15 | 0.651 | 0.234 | 0.285 | 0.257 | 0.205 | 0.754 | 0.758 | 0.828 | 0.793 | 0.721 | 0.62 | 0.766 | 0.774 | 0.8 | 0.698 | 0.286
NCI-H596 | 0.893 | 0.82 | 0.806 | 0.87 | 0.761 | 0.595 | 0.634 | 0.431 | 0.434 | 1.04 | 1.01 | – | 1.02 | 0.847 | 0.455 | 0.521 | – | 0.538 | 0.457 | 0.513
NCI-H647 | 1.12 | 1.36 | – | 1.25 | 1.34 | 0.547 | 0.675 | 0.565 | 0.602 | 1.13 | 1.01 | 1.23 | 1.08 | 1.04 | 0.165 | 0.14 | 0.211 | 0.161 | 0.15 | 0.686
NCI-H650 | 1.06 | 1.01 | 1.02 | 0.881 | 1.07 | 0.492 | 0.457 | 0.45 | 0.407 | 0.633 | 1.03 | 0.744 | 0.728 | 0.802 | 0.978 | 0.871 | 0.848 | 0.812 | 0.726 | 0.433
NCI-H661 | 1.14 | 1.16 | 1.07 | 0.93 | 1.2 | 0.712 | 0.688 | 0.763 | 0.668 | 0.446 | 0.462 | 0.578 | 0.473 | 0.403 | 0.904 | 0.903 | 0.944 | 0.894 | 1.02 | 0.688
NCI-H838 | 1.12 | 1.07 | 0.981 | 1.06 | 1.11 | 0.372 | 0.31 | 0.289 | 0.357 | 0.976 | 1.02 | 0.901 | 0.822 | 0.966 | 0.257 | 0.279 | 0.227 | 0.244 | 0.253 | 0.389

— the supplement of paper PMC10307832
